The subject of one assay is senescent cells. Put plainly: Viability of senescent cells (CellTiter-Glo), Example 17, Table 13. The settings on record: Homo sapiens, read-out: Survival (%). On the technique in general: In ATP-based viability assays light output follows the ATP content of the culture.
Assay [1] relates to carbon tetrachloride-induced liver fibrosis mice. Kind of assay: Carbon tetrachloride-induced liver fibrosis mice, Example 31, Table 57. The settings on record: CCl4-induced liver fibrosis mice, untreated = 100%. In kind it is in vivo, mouse. On the procedure: (§1) The control group was administered only the solution in the same volume. After the end of drug administration, the method described in each example below was performed. Liver, kidney, skin, knee joint, heart, and femur tissues were collected from mice in which natural aging was induced in the same manner as in Examples 7-2 and 7-6 of WO2023-085787 A1. Lung tissues were collected from mice in which pulmonary fibrosis was induced using the same method as in Example 24-1. Liver tissues were collected from mice in which hepatic fibrosis was induced using the same method as in Example 26, and total RNA was extracted. qRT-PCR was performed and analyzed using the synthesized cDNA. […] The mRNA amounts of p16, MMP3, and IL6 after natural aging was induced were calculated as 100% and compared with the mRNA amounts of p16, MMP3, and IL6 after treatment with the test compound. In addition, an open field test for the analysis of aging-related frailty, agtr1a mRNA analysis for kidney damage and disease evaluation, col1a1 and SDF1 mRNA analysis for skin aging evaluation such as wrinkles/loss of elasticity/hyperpigmentation, col2a1 mRNA analysis for evaluating joint aging such as osteoarthritis, sur2a mRNA analysis for evaluating cardiac aging such as decreased cardiac load resistance, ctsk mRNA analysis for evaluating bone diseases due to aging such as osteoporosis, muscle tissue weight for analyzing sarcopenia, fat tissue weight for analyzing lipoatrophy, and cataract incidence analysis were performed in mice. For cataract incidence analysis, the drug was administered twice a week under the conditions specified above, and biweekly examinations were conducted until death.

Assay [2] deals with bleomycin-induced pulmonary fibrosis mice. Put plainly: Bleomycin-induced pulmonary fibrosis mice, Example 31, Table 56. The note with it: untreated = 100%. In kind it is in vivo, mouse. On the procedure:
as §1
The table below quantitatively presents the evaluation results for each item in mice with bleomycin-induced pulmonary fibrosis, untreated and treated with the test compound.

For a further assay, the system named is naturally aged mice. Kind of assay: Anti-aging evaluation in naturally aged mice, Example 31, Table 55.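 As to all read-outs here: Vehicle-dosed control mice received solution alone at matching volume, values compare test-compound-treated aged mice against that control.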 The note with it: for Femur Ctsk mRNA / Kidney Agtr1a mRNA / Liver IL6 mRNA / Liver MMP3 mRNA / Liver p16 mRNA / Open Field Test Time in Center: untreated = 100%; for Heart Sur2a mRNA / Joint Col2a1 mRNA / Skin Col1a1 mRNA / Skin SDF1 mRNA: untreated = 1.0; for Muscle Mass: untreated 0.64 g; for Fat Mass: untreated 0.82 g; for Cataract incidence: untreated 83%. It is filed as in vivo, mouse.

In another assay the test system is senescent A549 cells. Kind of assay: Viability of senescent A549 cells (CellTiter-Glo), Example 18, Table 15. The settings on record: Homo sapiens, A549, read-out: Survival (%).

The results in this text go back to patent US20260306460A1, “COMPOSITION FOR REMOVING AND INHIBITING SENESCENT CELLS, AND USES THEREOF” (LIFECEUTIX CO., LTD., priority 2023, published 2026).

Description for senescent A549 cells: Senescence-induced cancer cells treated with doxorubicin were treated with the test compound at designated concentrations, and cell viability was measured using the CellTiter-Glo Luminescent Cell Viability Assay (Promega).
Description for senescent cells: Cells induced to undergo senescence by doxorubicin treatment were treated with test compound at designated concentrations and measured using the CellTiter-Glo Luminescent Cell Viability Assay (Promega).

For `[2H]C12CCN(CC1)C(CO)(COC)C2=O` (stereo not drawn) [LX-5722], in the assay on senescent cells, the viability at 1.1 µM is 91.5%, the viability at 10 µM was 34.1% and the viability at 30 µM amounted to 1.8%. In addition, in assay [1], the “Liver p16 mRNA” value is 69 (±6.2) % and the “Col1a1 mRNA” value was 76 (±6.4) %. In addition, in assay [2], the “Lung p16 mRNA” value is 73 (±5.5) % and the “Col1a1 mRNA” value is listed as 78 (±7.2) %. In the assay on naturally aged mice, the “Femur Ctsk mRNA” value stood at 59%, the “Heart Sur2a mRNA” value was 2.4 fold, the “Joint Col2a1 mRNA” value came to 2.1 fold and the “Kidney Agtr1a mRNA” value is 52%. Moreover, in the assay on naturally aged mice, the “Liver IL6 mRNA” value came to 73%, the “Liver MMP3 mRNA” value is reported as 63%, the “Liver p16 mRNA” value was 46% and the “Open Field Test Time in Center” value is 222%. In the assay with naturally aged mice, the “Skin Col1a1 mRNA” value is 1.8 Fold, the “Skin SDF1 mRNA” value is 1.6 fold, the “Muscle Mass” value is recorded as 0.70 g and the “Fat Mass” value came out at 1.03 g. Moreover, the Cataract incidence in the assay with naturally aged mice came out at 69%. Also, in the assay with senescent A549 cells, the viability at 1.1 µM stood at 99% and the viability at 10 µM was found to be 4.1%.

Regarding `CN[C@H](CC(C)C)C(=O)N[C@H]1C(=O)N[C@@H](CC(N)=O)C(=O)N[C@H]2C(=O)N[C@H]3C(=O)N[C@H](C(=O)N[C@H](C(=O)O)c4cc(O)cc(O)c4-c4cc3ccc4O)[C@H](O)c3ccc(c(Cl)c3)Oc3cc2cc(c3O[C@@H]2O[C@H](CO)[C@@H](O)[C@H](O)[C@H]2O[C@H]2C[C@](C)(N)[C@H](O)[C@H](C)O2)Oc2ccc(cc2Cl)[C@H]1O` [LX-5424, Vancomycin], in the assay on senescent cells, the viability at 1.1 µM came to 106%, the viability at 10 µM amounted to 62.5% and the viability at 30 µM worked out at 10.5%. Moreover, in assay [1], the “Liver p16 mRNA” value is on record as 79 (±5.6) % and the “Col1a1 mRNA” value was 51 (±4.7) %. In assay [2], the “Lung p16 mRNA” value is 70 (±3.5) % and the “Col1a1 mRNA” value is reported as 73 (±2.7) %. For the same compound, in the assay with naturally aged mice, the “Femur Ctsk mRNA” value was 70%, the “Heart Sur2a mRNA” value is 2.3 fold, the “Joint Col2a1 mRNA” value amounted to 1.5 fold and the “Kidney Agtr1a mRNA” value came to 68%. Further, in the assay with naturally aged mice, the “Liver IL6 mRNA” value is 45%, the “Liver MMP3 mRNA” value is reported as 59%, the “Liver p16 mRNA” value is on record as 72% and the “Open Field Test Time in Center” value stood at 191%. In the assay on naturally aged mice, the “Skin Col1a1 mRNA” value is given as 1.6 Fold, the “Skin SDF1 mRNA” value is recorded as 1.7 fold, the “Muscle Mass” value was determined as 0.67 g and the “Fat Mass” value came out at 0.84 g. The Cataract incidence with naturally aged mice is 76%. In the assay with senescent A549 cells, the viability at 1.1 µM was found to be 98.9%, the viability at 10 µM amounted to 74.3% and the viability at 30 µM is 21.8%.

Take `C[C@@H](Nc1nc(N[C@H](C)C(F)(F)F)nc(-c2cccc(Cl)n2)n1)C(F)(F)F` [LX-8726, Vorasidenib]: the viability at 1.1 µM with senescent cells was 52.3%. For the same compound, in assay [1], the “Liver p16 mRNA” value is given as 36 (±4.3) % and the “Col1a1 mRNA” value is 48 (±4.3) %. Moreover, in assay [2], the “Lung p16 mRNA” value was 42 (±2.9) % and the “Col1a1 mRNA” value is given as 58 (±5.3) %. Also, in the assay on naturally aged mice, the “Femur Ctsk mRNA” value was found to be 25%, the “Heart Sur2a mRNA” value stood at 2.9 fold, the “Joint Col2a1 mRNA” value amounted to 2.4 fold and the “Kidney Agtr1a mRNA” value is recorded as 48%. Besides, in the assay with naturally aged mice, the “Liver IL6 mRNA” value came out at 25%, the “Liver MMP3 mRNA” value is 64%, the “Liver p16 mRNA” value worked out at 61% and the “Open Field Test Time in Center” value is 276%. In the assay with naturally aged mice, the “Skin Col1a1 mRNA” value amounted to 2.8 Fold, the “Skin SDF1 mRNA” value is recorded as 2.7 fold, the “Muscle Mass” value was determined as 0.81 g and the “Fat Mass” value worked out at 1.20 g. The compound also had a Cataract incidence with naturally aged mice of 43%. Besides, in the assay with senescent A549 cells, the viability at 1.1 µM was found to be 71.7% and the viability at 10 µM turned out to be 17.5%.

For the compound `CC1(C)[C@H]2COc3ccc4ccccc4c3[C@H]2N=C2SC(c3ccccc3)=C(c3ccccc3)N21` [LX-5201], in the assay on senescent cells, the viability at 1.1 µM worked out at 102%, the viability at 10 µM came out at 88.3% and the viability at 30 µM was found to be 37.7%. Further, in assay [1], the “Liver p16 mRNA” value is 64 (±8.4) % and the “Col1a1 mRNA” value was 59 (±8.7) %. Besides, in assay [2], the “Lung p16 mRNA” value is recorded as 75 (±4.2) % and the “Col1a1 mRNA” value is recorded as 74 (±6.3) %. Moreover, in the assay with naturally aged mice, the “Femur Ctsk mRNA” value is 53%, the “Heart Sur2a mRNA” value is 1.5 fold, the “Joint Col2a1 mRNA” value was determined as 1.9 fold and the “Kidney Agtr1a mRNA” value was 58%. For the same compound, in the assay with naturally aged mice, the “Liver IL6 mRNA” value was 43%, the “Liver MMP3 mRNA” value turned out to be 67%, the “Liver p16 mRNA” value is 58% and the “Open Field Test Time in Center” value was found to be 168%. For the same compound, in the assay with naturally aged mice, the “Skin Col1a1 mRNA” value was found to be 2.1 Fold, the “Skin SDF1 mRNA” value is on record as 2.3 fold, the “Muscle Mass” value was 0.77 g and the “Fat Mass” value is recorded as 0.97 g. This compound also returned a Cataract incidence in the assay on naturally aged mice of 49%. In the assay on senescent A549 cells, the viability at 1.1 µM turned out to be 102%, the viability at 10 µM amounted to 61.5% and the viability at 30 µM amounted to 3.8%.

With `NC(=O)c1ncn([C@@H]2O[C@H](CO)[C@@H](O)[C@H]2O)n1` [LX-6537, Ribavirin], in the assay on senescent cells, the viability at 1.1 µM amounted to 90.9%, the viability at 10 µM was 67.3% and the viability at 30 µM is 12.2%. Moreover, in assay [1], the “Liver p16 mRNA” value is on record as 77 (±5.7) % and the “Col1a1 mRNA” value is recorded as 81 (±4.1) %. Further, in assay [2], the “Lung p16 mRNA” value is 64 (±3.2) % and the “Col1a1 mRNA” value is recorded as 67 (±3.9) %. Moreover, in the assay with naturally aged mice, the “Femur Ctsk mRNA” value is recorded as 67%, the “Heart Sur2a mRNA” value is reported as 1.6 fold, the “Joint Col2a1 mRNA” value came out at 2.2 fold and the “Kidney Agtr1a mRNA” value was found to be 73%. In addition, in the assay with naturally aged mice, the “Liver IL6 mRNA” value is reported as 48%, the “Liver MMP3 mRNA” value is 67%, the “Liver p16 mRNA” value was found to be 74% and the “Open Field Test Time in Center” value came out at 177%. Further, in the assay on naturally aged mice, the “Skin Col1a1 mRNA” value is on record as 1.9 Fold, the “Skin SDF1 mRNA” value came to 1.4 fold, the “Muscle Mass” value came out at 0.68 g and the “Fat Mass” value is 0.85 g. The compound also yielded a Cataract incidence in the assay with naturally aged mice of 72%. In addition, in the assay on senescent A549 cells, the viability at 1.1 µM came out at 102%, the viability at 10 µM was 66.8% and the viability at 30 µM was determined as 2.4%.

For the compound `Cn1cc(C[C@@H](N)C(=O)O)c2ccccc21` [LX-8801, Indoximod], in the assay on senescent cells, the viability at 1.1 µM amounted to 69.1% and the viability at 10 µM was 1.2%. Also, in assay [1], the “Liver p16 mRNA” value is on record as 49 (±4.3) % and the “Col1a1 mRNA” value is 53 (±3.5) %. For the same compound, in assay [2], the “Lung p16 mRNA” value is 44 (±3.0) % and the “Col1a1 mRNA” value is on record as 67 (±4.5) %. In the assay on naturally aged mice, the “Femur Ctsk mRNA” value worked out at 35%, the “Heart Sur2a mRNA” value worked out at 2.9 fold, the “Joint Col2a1 mRNA” value is 1.7 fold and the “Kidney Agtr1a mRNA” value is 72%. For the same compound, in the assay on naturally aged mice, the “Liver IL6 mRNA” value came to 33%, the “Liver MMP3 mRNA” value was determined as 63%, the “Liver p16 mRNA” value is 54% and the “Open Field Test Time in Center” value is 205%. In addition, in the assay on naturally aged mice, the “Skin Col1a1 mRNA” value amounted to 2.1 Fold, the “Skin SDF1 mRNA” value is reported as 2.6 fold, the “Muscle Mass” value was determined as 0.69 g and the “Fat Mass” value worked out at 0.94 g. Besides, the Cataract incidence in the assay on naturally aged mice is reported as 59%. Also, in the assay on senescent A549 cells, the viability at 1.1 µM came out at 62.5% and the viability at 10 µM turned out to be 8.4%.
